# Test results: patent US10214508B2, “Nitrogen-containing heterocyclic compound” (Takeda Pharmaceutical Company Limited, priority 2014, dated 2019)
# Molecular target: T1, human M1 receptor (hCHRM1) (Homo sapiens, UniProt P11229)
# T1 construct: expressed in transfected cells
# T1 sequence (P11229 1-460): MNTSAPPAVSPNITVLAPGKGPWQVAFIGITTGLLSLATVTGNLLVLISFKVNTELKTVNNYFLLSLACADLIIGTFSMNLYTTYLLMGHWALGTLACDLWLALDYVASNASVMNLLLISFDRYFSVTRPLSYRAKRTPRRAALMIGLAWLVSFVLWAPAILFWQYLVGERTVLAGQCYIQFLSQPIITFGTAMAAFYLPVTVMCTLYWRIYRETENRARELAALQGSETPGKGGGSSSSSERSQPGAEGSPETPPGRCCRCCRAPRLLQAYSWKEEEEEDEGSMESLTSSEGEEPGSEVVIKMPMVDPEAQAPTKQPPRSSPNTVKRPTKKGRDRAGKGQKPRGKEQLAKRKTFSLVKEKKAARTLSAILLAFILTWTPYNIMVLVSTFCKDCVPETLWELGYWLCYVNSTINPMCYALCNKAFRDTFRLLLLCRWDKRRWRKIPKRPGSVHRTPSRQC
# Experiment: Measurement of M1 receptor positive allosteric modulator (M1PAM) activity, calcium fluorescence (FLIPRtetra)
# Assay type: cell-based
# Conditions: 10 μM test compound with acetylcholine at EC20 (final 0.6-0.8 nM); 100% = acetylcholine 1 μM, 0% = DMSO; CHO-K1 cells expressing hCHRM1
# Protocol: Measurement of M1 Receptor Positive Allosteric Modulator (M1PAM) Activity
# The activity of a test compound in the presence of acetylcholine at EC20 concentration (final concentration 0.6-0.8 nM), which affords an action corresponding to about 20% of the maximum activity, was measured as PAM activity. The method is as follows. CHO-K1 cells stably expressing a human M1 receptor (hCHRM1) were plated on a 384-well black clear bottom plate (BD Falcon) at 5,000 cells/well, and cultured in an incubator at 37° C., 5% CO2 for 1 day. The medium in the cell plate was removed, and assay buffer A containing calcium indicator (Recording medium (DOJINDO LABORATORIES), 0.1% BSA (Wako Pure Chemical Industries, Ltd.), 2.5 μg/mL Fluo-4 AM (DOJINDO LABORATORIES), 0.08% Pluronic F127 (DOJINDO LABORATORIES), 1.25 mM probenecid (DOJINDO LABORATORIES)) was added at 30 μL/well. The cells were left standing in the incubator at 37° C., 5% CO2 for 30 min, and further left standing at room temperature for 30 min. A test compound prepared by diluting with assay buffer B (HBSS (Invitrogen), 20 mM HEPES (Invitrogen), 0.1% BSA) containing 2.4-3.2 nM acetylcholine was added at 10 μL/well, and the fluorescence was measured by FLIPRtetra (Molecular Devices) for 1 min every for 1 second. With the definition that the amount of change in the fluorescence on addition of acetylcholine (final concentration 1 μM) is 100% and that on addition of DMSO instead of a test compound is 0%, the activity (%) of the test compound was calculated, and the inflection point in the concentration-dependent curve of the test compound was calculated as IP values.
row,Compound,activity (%) at 10 μM [%]
1,"Cc1cnc(C(=O)NC2CC(F)(F)C2)cc1Cc1ccc(-c2ccn(C)n2)cc1 [Example 30, N-(3,3-difluorocyclobutyl)-5-methyl-4-(4-(1-methyl-1H-pyrazol-3-yl)benzyl)pyridine-2-carboxamide]",85
2,"Cc1cnc(C(=O)NC2CCOC2)cc1Cc1ccc(-c2ccn(C)n2)cc1 (stereo not shown) [Example 31, 5-methyl-4-(4-(1-methyl-1H-pyrazol-3-yl)benzyl)-N-(tetrahydrofuran-3-yl)pyridine-2-carboxamide]",84
3,"Cc1cnc(C(=O)NC2CCCOC2)cc1Cc1ccc(-c2ccn(C)n2)cc1 (stereo not shown) [Example 32, 5-methyl-4-(4-(1-methyl-1H-pyrazol-3-yl)benzyl)-N-(tetrahydro-2H-pyran-3-yl)pyridine-2-carboxamide]",101
4,"Cc1cnc(C(=O)NC2CCC(F)(F)CC2)cc1Cc1ccc(-c2ccn(C)n2)cc1 [Example 33, N-(4,4-difluorocyclohexyl)-5-methyl-4-(4-(1-methyl-1H-pyrazol-3-yl)benzyl)pyridine-2-carboxamide]",71
5,"Cc1cnc(C(=O)N[C@H]2CCC[C@@H]2O)cc1Cc1ccc(-n2cccn2)nc1 [Example 34, N-((1S,2S)-2-hydroxycyclopentyl)-5-methyl-4-((6-(1H-pyrazol-1-yl)pyridin-3-yl)methyl)pyridine-2-carboxamide]",96
6,"Cc1cnc(C(=O)N[C@H]2CCCC[C@@H]2O)cc1Cc1ccc(-n2cccn2)nc1 [Example 35, N-((1S,2S)-2-hydroxycyclohexyl)-5-methyl-4-((6-(1H-pyrazol-1-yl)pyridin-3-yl)methyl)pyridine-2-carboxamide]",102
7,"Cc1cnc(C(=O)N[C@H]2COCC[C@@H]2O)cc1Cc1ccc(-n2cccn2)cc1F [Example 36, 1,5-anhydro-2,4-dideoxy-2-(((4-(2-fluoro-4-(1H-pyrazol-1-yl)benzyl)-5-methylpyridin-2-yl)carbonyl)amino)-L-threo-pentitol]",95
8,"O=C(N[C@H]1CCC[C@@H]1O)c1cc(Cc2ccc(-n3cccn3)cc2)c(C(F)F)cn1 [Example 37, 5-(difluoromethyl)-N-((1S,2S)-2-hydroxycyclopentyl)-4-(4-(1H-pyrazol-1-yl)benzyl)pyridine-2-carboxamide]",106
9,"O=C(N[C@H]1CCCC[C@@H]1O)c1cc(Cc2ccc(-n3cccn3)cc2)c(C(F)F)cn1 [Example 38, 5-(difluoromethyl)-N-((1S,2S)-2-hydroxycyclohexyl)-4-(4-(1H-pyrazol-1-yl)benzyl)pyridine-2-carboxamide]",101
10,"O=C(N[C@H]1COCC[C@@H]1O)c1cc(Cc2ccc(-n3cccn3)cc2)c(C(F)F)cn1 [Example 39, 1,5-anhydro-2,4-dideoxy-2-(((5-(difluoromethyl)-4-(4-(1H-pyrazol-1-yl)benzyl)pyridin-2-yl)carbonyl)amino)-L-threo-pentitol]",100
11,"Cn1ccc(-c2ccc(Cc3cc(C(=O)N[C@H]4COCC[C@@H]4O)ncc3C(F)F)cc2)n1 [Example 40, 1,5-anhydro-2,4-dideoxy-2-(((5-(difluoromethyl)-4-(4-(1-methyl-1H-pyrazol-3-yl)benzyl)pyridin-2-yl)carbonyl)amino)-L-threo-pentitol]",95
12,"Cn1ccc(-c2ccc(Cc3cc(C(=O)N[C@H]4CCCC[C@@H]4O)ncc3C(F)F)cc2)n1 [Example 41, 5-(difluoromethyl)-N-((1S,2S)-2-hydroxycyclohexyl)-4-(4-(1-methyl-1H-pyrazol-3-yl)benzyl)pyridine-2-carboxamide]",95
13,"C=Cc1cnc(C(=O)N[C@H]2CCCC[C@@H]2O)cc1Cc1ccc(-n2cccn2)cc1 [Example 42, N-((1S,2S)-2-hydroxycyclohexyl)-4-(4-(1H-pyrazol-1-yl)benzyl)-5-vinylpyridine-2-carboxamide]",106
14,"CCc1cnc(C(=O)N[C@H]2CCCC[C@@H]2O)cc1Cc1ccc(-n2cccn2)cc1 [Example 43, 5-ethyl-N-((1S,2S)-2-hydroxycyclohexyl)-4-(4-(1H-pyrazol-1-yl)benzyl)pyridine-2-carboxamide]",92

# Further lines, results first:
row,activity (%) at 10 μM [%],Compound
1,92,"CCc1cnc(C(=O)N[C@H]2COCC[C@@H]2O)cc1Cc1ccc(-n2cccn2)cc1 [Example 44, 1,5-anhydro-2,4-dideoxy-2-(((5-ethyl-4-(4-(1H-pyrazol-1-yl)benzyl)pyridin-2-yl)carbonyl)amino)-L-threo-pentitol]"
2,102,"O=C(N[C@H]1CCCC[C@@H]1O)c1cc(Cc2ccc(-n3cccn3)cc2)ccn1 [Example 45, N-((1S,2S)-2-hydroxycyclohexyl)-4-(4-(1H-pyrazol-1-yl)benzyl)pyridine-2-carboxamide]"
3,101,"O=C(N[C@H]1CCCC[C@@H]1O)c1cc(Cc2ccc(-n3cccn3)cc2)c(C2CC2)cn1 [Example 46, 5-cyclopropyl-N-((1S,2S)-2-hydroxycyclohexyl)-4-(4-(1H-pyrazol-1-yl)benzyl)pyridine-2-carboxamide]"
4,96,"O=C(N[C@H]1COCC[C@@H]1O)c1cc(Cc2ccc(-n3cccn3)cc2)c(C2CC2)cn1 [Example 47, 1,5-anhydro-2-(((5-cyclopropyl-4-(4-(1H-pyrazol-1-yl)benzyl)pyridin-2-yl)carbonyl)amino)-2,4-dideoxy-L-threo-pentitol]"
5,106,"Cc1cnc(C(=O)N[C@H]2CCCC[C@@H]2O)cc1Cc1ccc(-n2cccn2)cc1 [Example 48, N-((1S,2S)-2-hydroxycyclohexyl)-5-methyl-4-(4-(1H-pyrazol-1-yl)benzyl)pyridine-2-carboxamide]"
6,99,"Cc1cnc(C(=O)N[C@H]2COCC[C@@H]2O)cc1Cc1ccc(-n2cccn2)cc1 [Example 49, 1,5-anhydro-2,4-dideoxy-2-(((5-methyl-4-(4-(1H-pyrazol-1-yl)benzyl)pyridin-2-yl)carbonyl)amino)-L-threo-pentitol]"
7,105,"Cc1cnc(C(=O)N[C@H]2CCC[C@@H]2O)cc1Cc1ccc(-n2cccn2)cc1 [Example 50, N-((1S,2S)-2-hydroxycyclopentyl)-5-methyl-4-(4-(1H-pyrazol-1-yl)benzyl)pyridine-2-carboxamide]"
8,95,"Cn1ccc(-c2ccc(Cc3cc(C(=O)N[C@H]4CCCC[C@@H]4O)ncc3Cl)cc2)n1 [Example 51, 5-chloro-N-((1S,2S)-2-hydroxycyclohexyl)-4-(4-(1-methyl-1H-pyrazol-3-yl)benzyl)pyridine-2-carboxamide]"
9,100,"Cn1ccc(-c2ccc(Cc3cc(C(=O)N[C@H]4CCCC[C@@H]4O)ncc3Cl)cc2)n1 [Example 52, 5-chloro-N-((1S,2S)-2-hydroxycyclohexyl)-4-(4-(1-methyl-1H-pyrazol-3-yl)benzyl)pyridine-2-carboxamide]"
10,93,"O=C(N[C@H]1CCC[C@@H]1O)c1cc(Cc2ccc(-n3cccn3)cc2F)c(Cl)cn1 [Example 53, 5-chloro-4-(2-fluoro-4-(1H-pyrazol-1-yl)benzyl)-N-((1S,2S)-2-hydroxycyclopentyl)pyridine-2-carboxamide]"
11,99,"O=C(N[C@H]1CCCC[C@@H]1O)c1cc(Cc2ccc(-n3cccn3)cc2F)c(Cl)cn1 [Example 54, 5-chloro-4-(2-fluoro-4-(1H-pyrazol-1-yl)benzyl)-N-((1S,2S)-2-hydroxycyclohexyl)pyridine-2-carboxamide]"
12,97,"O=C(N[C@H]1CCCC[C@@H]1O)c1cc(Cc2ccc(-n3cccn3)cc2)c(F)cn1 [Example 55, 5-fluoro-N-((1S,2S)-2-hydroxycyclohexyl)-4-(4-(1H-pyrazol-1-yl)benzyl)pyridine-2-carboxamide]"
13,103,"COc1cnc(C(=O)N[C@H]2COCC[C@@H]2O)cc1Cc1ccc(-n2cccn2)cc1 [Example 56, 1,5-anhydro-2,4-dideoxy-2-(((5-methoxy-4-(4-(1H-pyrazol-1-yl)benzyl)pyridin-2-yl)carbonyl)amino)-L-threo-pentitol]"
14,95,"COc1cnc(C(=O)N[C@H]2CCCC[C@@H]2O)cc1Cc1ccc(Cl)nc1 [Example 57, 4-((6-chloropyridin-3-yl)methyl)-N-(2-trans-hydroxycyclohexyl)-5-methoxypyridine-2-carboxamide]"
